{
  "source": "ChEMBL document CHEMBL1139672",
  "about": "“1,2,3,4-Tetrahydroisoquinolinyl sulfamic acids as phosphatase PTP1B inhibitors” (Bioorg Med Chem Lett, 2006)",
  "key": {"[1]": {"biological_target": "T1, Receptor-type tyrosine-protein phosphatase eta (Homo sapiens, UniProt Q12913)", "T1 sequence (Q12913 whole entry)": "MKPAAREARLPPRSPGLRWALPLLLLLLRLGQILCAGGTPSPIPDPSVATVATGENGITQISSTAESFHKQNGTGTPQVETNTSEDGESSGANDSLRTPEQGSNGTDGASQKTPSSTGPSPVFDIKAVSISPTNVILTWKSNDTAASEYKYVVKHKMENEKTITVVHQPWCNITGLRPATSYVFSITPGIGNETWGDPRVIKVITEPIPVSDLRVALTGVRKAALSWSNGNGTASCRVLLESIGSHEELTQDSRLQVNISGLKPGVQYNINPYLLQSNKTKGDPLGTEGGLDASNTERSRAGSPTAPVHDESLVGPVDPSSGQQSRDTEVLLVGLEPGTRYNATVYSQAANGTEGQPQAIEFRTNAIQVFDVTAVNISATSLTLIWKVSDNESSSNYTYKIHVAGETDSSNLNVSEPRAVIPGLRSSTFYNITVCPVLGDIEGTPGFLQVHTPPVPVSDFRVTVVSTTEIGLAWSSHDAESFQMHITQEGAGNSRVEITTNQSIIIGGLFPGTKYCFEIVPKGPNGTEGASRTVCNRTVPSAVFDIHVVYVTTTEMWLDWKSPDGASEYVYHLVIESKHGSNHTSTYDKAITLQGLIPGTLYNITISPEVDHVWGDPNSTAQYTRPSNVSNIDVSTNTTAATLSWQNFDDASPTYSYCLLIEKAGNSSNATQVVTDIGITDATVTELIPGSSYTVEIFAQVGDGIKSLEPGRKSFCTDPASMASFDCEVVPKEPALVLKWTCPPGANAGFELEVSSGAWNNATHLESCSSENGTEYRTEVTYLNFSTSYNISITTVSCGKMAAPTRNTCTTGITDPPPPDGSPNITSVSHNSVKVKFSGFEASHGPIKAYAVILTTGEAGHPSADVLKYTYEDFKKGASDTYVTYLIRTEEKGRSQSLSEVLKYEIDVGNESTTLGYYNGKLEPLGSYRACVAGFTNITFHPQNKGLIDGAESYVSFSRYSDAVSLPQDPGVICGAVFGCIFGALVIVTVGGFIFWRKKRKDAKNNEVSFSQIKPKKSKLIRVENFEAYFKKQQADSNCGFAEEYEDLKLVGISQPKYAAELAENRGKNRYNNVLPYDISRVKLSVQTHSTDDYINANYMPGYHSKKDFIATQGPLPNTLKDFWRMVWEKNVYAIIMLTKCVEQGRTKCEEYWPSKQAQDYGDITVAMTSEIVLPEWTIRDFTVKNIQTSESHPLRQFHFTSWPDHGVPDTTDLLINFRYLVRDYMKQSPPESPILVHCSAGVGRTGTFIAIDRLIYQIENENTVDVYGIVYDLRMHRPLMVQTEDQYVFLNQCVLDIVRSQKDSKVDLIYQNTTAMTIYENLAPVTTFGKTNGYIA", "assay": "Inhibition of HPTP eta"}, "[2]": {"biological_target": "Dual specificity protein phosphatase 3 (Homo sapiens, UniProt P51452)", "sequence (P51452 whole entry)": "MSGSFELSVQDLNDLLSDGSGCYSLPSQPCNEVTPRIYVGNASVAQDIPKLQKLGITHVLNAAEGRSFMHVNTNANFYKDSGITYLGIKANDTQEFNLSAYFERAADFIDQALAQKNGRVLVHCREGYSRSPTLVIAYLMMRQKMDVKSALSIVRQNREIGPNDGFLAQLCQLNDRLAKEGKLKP", "assay": "Inhibition of VHR"}},
  "data": [
    {"smiles": "CNC(=O)[C@@H]1Cc2ccc(NS(=O)(=O)O)cc2CN1C(=O)CCc1cccc(NS(=O)(=O)O)c1", "values": [
      {"measurement": "IC50", "setting": "[1]", "result": 150, "unit": "µM"},
      {"measurement": "IC50", "setting": "[2]", "result": 4, "unit": "µM"}
    ]}
  ]
}
